From PubChem BioAssay (NCI)
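Five concentrations, 48 hours, 96-well plates. GI50: concentration for 50% inhibition of growth. The concentration for full growth arrest is given as TGI.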

How the values were obtained:
Experiment in all cases: NCI-60 cell line screen, 48 h
A549 NSCLC = system: A549 NSCLC
NCI/ADR-RES ovarian = system: NCI/ADR-RES ovarian
SR leukemia = system: SR leukemia
UACC-257 melanoma = system: UACC-257 melanoma
MALME-3M melanoma = system: MALME-3M melanoma
HL-60(TB) leukemia = system: HL-60(TB) leukemia
UACC-62 melanoma = system: UACC-62 melanoma
SNB-19 CNS = system: SNB-19 CNS
MCF7 breast = system: MCF7 breast
SK-MEL-28 melanoma = system: SK-MEL-28 melanoma
SNB-75 CNS = system: SNB-75 CNS
MDA-MB-231 breast = system: MDA-MB-231 breast
OVCAR-4 ovarian = system: OVCAR-4 ovarian
SF-295 CNS = system: SF-295 CNS
TK-10 renal = system: TK-10 renal
U251 CNS = system: U251 CNS
OVCAR-8 ovarian = system: OVCAR-8 ovarian
OVCAR-5 ovarian = system: OVCAR-5 ovarian
HS 578T breast = system: HS 578T breast
DU-145 prostate = system: DU-145 prostate
KM12 colon = system: KM12 colon
SK-OV-3 ovarian = system: SK-OV-3 ovarian
K-562 leukemia = system: K-562 leukemia
PC-3 prostate = system: PC-3 prostate
OVCAR-3 ovarian = system: OVCAR-3 ovarian
BT-549 breast = system: BT-549 breast
MOLT-4 leukemia = system: MOLT-4 leukemia
LOX IMVI melanoma = system: LOX IMVI melanoma

COc1ccc(C2C=C(c3ccc(OC)c(OC)c3)N=C3SC=CN32)c(Br)c1 (stereo unspecified)
GI50 (A549 NSCLC): 2.4 µM | TGI (A549 NSCLC): 7.86 µM | GI50 (NCI/ADR-RES ovarian): 4.59 µM | TGI (NCI/ADR-RES ovarian): 61.2 µM | GI50 (SR leukemia): 1.95 µM | TGI (SR leukemia): 4.79 µM | GI50 (UACC-257 melanoma): 2.98 µM | TGI (UACC-257 melanoma): 12 µM | GI50 (MALME-3M melanoma): 13.5 µM | TGI (MALME-3M melanoma): 32.6 µM | GI50 (HL-60(TB) leukemia): 3.06 µM | TGI (HL-60(TB) leukemia): 23 µM | GI50 (UACC-62 melanoma): 2.47 µM | TGI (UACC-62 melanoma): 7.06 µM | GI50 (SNB-19 CNS): 7.3 µM | TGI (SNB-19 CNS): 21.6 µM | GI50 (MCF7 breast): 0.807 µM | TGI (MCF7 breast): 2.24 µM | GI50 (SK-MEL-28 melanoma): 2.3 µM | TGI (SK-MEL-28 melanoma): 5.62 µM | GI50 (SNB-75 CNS): 3.1 µM | TGI (SNB-75 CNS): 14.3 µM | GI50 (MDA-MB-231 breast): 4.5 µM | TGI (MDA-MB-231 breast): 21.3 µM | GI50 (OVCAR-4 ovarian): 7.1 µM | TGI (OVCAR-4 ovarian): 49.4 µM | GI50 (SF-295 CNS): 11.5 µM | TGI (SF-295 CNS): 26.9 µM | GI50 (TK-10 renal): 3.64 µM | TGI (TK-10 renal): 15.3 µM | GI50 (U251 CNS): 1.6 µM | TGI (U251 CNS): 3.24 µM | GI50 (OVCAR-8 ovarian): 3.2 µM | TGI (OVCAR-8 ovarian): 17.1 µM | GI50 (OVCAR-5 ovarian): 6.44 µM | TGI (OVCAR-5 ovarian): 28.4 µM | GI50 (HS 578T breast): 3.41 µM | TGI (HS 578T breast): > 100 µM | GI50 (DU-145 prostate): 3.44 µM | TGI (DU-145 prostate): 11.6 µM | GI50 (KM12 colon): 1.83 µM | TGI (KM12 colon): 3.5 µM | GI50 (SK-OV-3 ovarian): 4.52 µM | TGI (SK-OV-3 ovarian): 16.7 µM | GI50 (K-562 leukemia): 2.82 µM | TGI (K-562 leukemia): > 100 µM | GI50 (PC-3 prostate): 3.88 µM | TGI (PC-3 prostate): 41 µM | GI50 (OVCAR-3 ovarian): 2.24 µM | TGI (OVCAR-3 ovarian): 4.91 µM | GI50 (BT-549 breast): 2.1 µM | TGI (BT-549 breast): 5.71 µM | GI50 (MOLT-4 leukemia): 3.16 µM | TGI (MOLT-4 leukemia): 30.6 µM | GI50 (LOX IMVI melanoma): 1.88 µM | TGI (LOX IMVI melanoma): 3.74 µM
